Source: patent publication US6441021B1, “Sulfonated amino acid derivatives and metalloproteinase inhibitors containing the same” (Shionogi & Co., Ltd., priority 1996, dated 2002)
Read-outs that look alike come from different tables or passages of the source.

How the values were obtained:
[1] = molecular target: T1, MMP-9 (92 kDa, gelatinase B; type IV collagenase) (Homo sapiens, UniProt P14780); assay: Assay of type IV collagenase inhibitors: activated MMP-9 with type IV collagenase activity kit substrate, fluorescent intensity; format: biochemical
T1 construct: endogenous in cells; enzyme purified from the conditioned medium
Procedure: (1) Isolation and Purification of MMP-9 (92 kDa, Gelatinase B)
Type IV collagenase (MMP-9) was purified according to the methods descrived in the following literature.
Subsequently, activated MMP-9 was obtained by treating the pro-MMP-9 with trypsin.
(2) Assay Methods of Type IV Collagenase Inhibitors
Collagenase assay was performed using the activated MMP-9 described above and the substrate supplied in the type IV collagenase activity kit (YAGAI, inc.), according to the manufacturer's protocol. The following 4 assays are performed per compound (inhibitor).
(A) substrate (type IV collagenase), enzyme (MMP-9), inhibitor
(B) substrate (type IV collagenase), inhibitor
(C) substrate (type IV collagenase), enzyme (MMP-9)
(D) substrate (type IV collagenase)
According to the manufacturer's protocol, fluorescent intensity was measured and percent inhibition was determined by the following equation.
Inhibition (%)={1−(A−B)/(C−D)}×100

[2] = inhibition of type IV collagenase (MMP-9), concentration at which percent inhibition reaches 50%

T1 sequence (P14780 107-707 limits assumed): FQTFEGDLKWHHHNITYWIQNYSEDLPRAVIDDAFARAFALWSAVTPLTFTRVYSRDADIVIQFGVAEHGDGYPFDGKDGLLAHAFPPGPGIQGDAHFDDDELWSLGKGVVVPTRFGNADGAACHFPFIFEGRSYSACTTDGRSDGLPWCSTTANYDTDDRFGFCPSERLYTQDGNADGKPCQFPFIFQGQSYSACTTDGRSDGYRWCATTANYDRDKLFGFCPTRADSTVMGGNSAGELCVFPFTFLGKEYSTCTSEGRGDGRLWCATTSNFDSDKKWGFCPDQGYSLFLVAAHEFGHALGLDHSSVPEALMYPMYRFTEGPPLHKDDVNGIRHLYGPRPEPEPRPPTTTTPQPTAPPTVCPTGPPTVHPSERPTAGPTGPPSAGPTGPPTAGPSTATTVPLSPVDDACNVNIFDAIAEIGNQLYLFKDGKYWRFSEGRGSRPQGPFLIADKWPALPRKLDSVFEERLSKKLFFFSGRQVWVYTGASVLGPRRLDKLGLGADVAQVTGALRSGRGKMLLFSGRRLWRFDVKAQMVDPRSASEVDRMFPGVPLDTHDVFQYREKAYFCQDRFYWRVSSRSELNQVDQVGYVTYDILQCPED

SMILES | melting point | IC50 [1] | IC50 [1, 2]
CC(C)C[C@@H](NS(=O)(=O)c1ccc(-c2nnn(-c3ccccc3)n2)cc1)C(=O)O [Example 214] | 202 to 204 °C | 832 nM | 
CSc1ccc(C(=O)Nc2ccc(S(=O)(=O)N[C@H](Cc3ccccc3)C(=O)O)cc2)cc1 [Example 191] | 232 to 235 °C | 9.5 nM | 
CSc1ccc(C(=O)Nc2ccc(S(=O)(=O)N[C@@H](C(=O)O)C(C)C)cc2)cc1 [Example 197] | 231 to 234 °C |  | 16.1 nM
Cc1cccc2[nH]cc(CC(NS(=O)(=O)c3ccc(-c4nnn(-c5ccccc5)n4)cc3)C(=O)O)c12 (stereo not drawn) [Example 216] | 145 to 148 °C | 107 nM | 
O=C(Nc1ccc(S(=O)(=O)N[C@H](Cc2ccccc2)C(=O)O)cc1)c1ccccc1 [Example 188] | 114 to 115 °C |  | 843 nM
O=C(Nc1ccc(S(=O)(=O)N[C@H](Cc2c[nH]c3ccccc23)C(=O)O)cc1)c1ccccc1 [Example 177] | 215 to 217 °C |  | 684 nM
CC(C)[C@@H](NS(=O)(=O)c1ccc(-c2nnn(-c3ccccc3)n2)cc1)C(=O)O [Example 215] | 221 to 222 °C |  | 110 nM
CC(C)[C@@H](NS(=O)(=O)c1ccc(NC(=O)c2ccc(F)cc2)cc1)C(=O)O [Example 198] | 235 to 236 °C | 493 nM | 
O=C(Nc1ccc(S(=O)(=O)N[C@H](Cc2ccccc2)C(=O)O)cc1)c1ccc([N+](=O)[O-])cc1 [Example 187] | 235 to 239 °C | 177 nM | 
Cn1cc(CC(NS(=O)(=O)c2ccc(-c3nnn(-c4ccccc4)n3)cc2)C(=O)O)c2ccccc21 (stereo not drawn) [Example 212] | 199 to 202 °C | 393 nM | 
O=C(Nc1ccc(S(=O)(=O)N[C@H](Cc2ccccc2)C(=O)O)cc1)c1ccc(Br)cc1 [Example 189] | 242 to 243 °C | 37.5 nM | 
Cc1ccc(C(=O)Nc2ccc(S(=O)(=O)N[C@H](Cc3ccccc3)C(=O)O)cc2)cc1 [Example 190] | 242 to 244 °C |  | 59.7 nM

The remaining lines, values ahead:

melting point | IC50 [1] | IC50 [1, 2] | SMILES
226 to 228 °C | 243 nM |  | O=C(O)[C@@H](Cc1ccccc1)NS(=O)(=O)c1ccc(-c2nnn(-c3ccc(O)cc3)n2)cc1 [Example 239]
148 to 150 °C | 0.63 nM |  | CC(C)[C@H](C(=O)NO)N(Cc1ccccc1)S(=O)(=O)c1ccc(Oc2ccccc2)cc1 [Example 254]
141 to 144 °C | 130 nM |  | CSc1ccc(-c2ccc(S(=O)(=O)N(C)[C@@H](C(=O)O)C(C)C)s2)cc1 [Example 259]
206 to 207 °C | 601 nM |  | CC(C)[C@H](C(=O)O)N(C)S(=O)(=O)c1ccc(-c2nnn(-c3ccccc3)n2)cc1 [Example 256]
197 to 198 °C | 215 nM |  | O=C(O)[C@@H](Cc1ccccc1)NS(=O)(=O)c1ccc(-c2nnn(-c3ccc(C(F)(F)F)cc3)n2)cc1 [Example 229]
110 to 111 °C | 0.039 nM |  | CC(C)[C@H](C(=O)NO)N(C)S(=O)(=O)c1ccc(Oc2ccccc2)cc1 [Example 253]
190 °C (dec.) | 349 nM |  | CC(C)[C@@H](NS(=O)(=O)c1ccc(-c2nnn(-c3ccc(O)cc3)n2)cc1)C(=O)O [Example 223]
205 to 207 °C | 316 nM |  | CCC(C)[C@@H](NS(=O)(=O)c1ccc(-c2nnn(-c3ccccc3)n2)cc1)C(=O)O (stereo partly drawn) [Example 221]
182 to 184 °C | 2850 nM |  | O=C(O)[C@@H](Cc1ccccc1)NS(=O)(=O)c1ccc(-c2nnn(-c3ccc(Oc4ccccc4)cc3)n2)cc1 [Example 238]
